Experimental data published in PubChem BioAssay (NCI).
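96-well plates; 48 h exposure; 5 concentrations. Endpoints by linear interpolation between flanking doses. Not reached: highest tested concentration assigned. The concentration for 50% growth inhibition is given as GI50. TGI: concentration producing complete growth inhibition.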

What was measured:
Experiment in all cases: growth of human tumour cells (NCI), 48 h
[1] = tested on: OVCAR-3 ovarian
[2] = tested on: MALME-3M melanoma
[3] = tested on: SR leukemia
[4] = tested on: SF-295 CNS
[5] = tested on: NCI/ADR-RES ovarian
[6] = tested on: SF-268 CNS
[7] = tested on: TK-10 renal
[8] = tested on: NCI-H460 lung
[9] = tested on: MDA-MB-435
[10] = tested on: ACHN renal
[11] = tested on: NCI-H226 lung
[12] = tested on: M14 melanoma
[13] = tested on: RPMI-8226 leukemia
[14] = tested on: HOP-62 NSCLC
[15] = tested on: SK-MEL-5 melanoma
[16] = tested on: CAKI-1 renal
[17] = tested on: NCI-H23 lung
[18] = tested on: HCT-116 colon
[19] = tested on: HT29 colon
[20] = tested on: HOP-92 NSCLC
[21] = tested on: A498 renal
[22] = tested on: MOLT-4 leukemia
[23] = tested on: T-47D breast
[24] = tested on: MCF7 breast
[25] = tested on: HCT-15 colon
[26] = tested on: PC-3 prostate
[27] = tested on: U251 CNS
[28] = tested on: SNB-19 CNS
[29] = tested on: SN12C renal
[30] = tested on: NCI-H522 lung
[31] = tested on: KM12 colon
[32] = tested on: K-562 leukemia
[33] = tested on: SK-MEL-28 melanoma
[34] = tested on: SK-OV-3 ovarian
[35] = tested on: HCC-2998 colon
[36] = tested on: OVCAR-8 ovarian
[37] = tested on: 786-0 renal
[38] = tested on: EKVX NSCLC
[39] = tested on: MDA-MB-231 breast
[40] = tested on: SF-539 CNS
[41] = tested on: CCRF-CEM leukemia
[42] = tested on: A549 NSCLC
[43] = tested on: SK-MEL-2 melanoma
[44] = tested on: OVCAR-5 ovarian
[45] = tested on: DU-145 prostate
[46] = tested on: UACC-62 melanoma
[47] = tested on: COLO 205 colon
[48] = tested on: IGROV1 ovarian
[49] = tested on: UACC-257 melanoma
[50] = tested on: HS 578T breast
[51] = tested on: SNB-75 CNS
[52] = tested on: SW-620 colon
[53] = tested on: UO-31 renal
[54] = tested on: BT-549 breast

Q: What does the source list for C=C(CN1CCc2ccccc2C1)c1ccc(CCC(=O)Nc2ccccc2N)cc1?
A: GI50 [1]: 19.3 µM; TGI [1]: 63.5 µM; GI50 [2]: 8.7 µM; TGI [2]: 36.8 µM; GI50 [3]: 18.7 µM; TGI [3]: 74.5 µM; GI50 [4]: 24.2 µM; TGI [4]: 86.7 µM; GI50 [5]: 18.9 µM; TGI [5]: 83.3 µM; GI50 [6]: 14.6 µM; TGI [6]: 45.3 µM; GI50 [7]: 43.1 µM; TGI [7]: > 100 µM; GI50 [8]: 16.8 µM; TGI [8]: 38.6 µM; GI50 [9]: 22.5 µM; TGI [9]: 49.9 µM; GI50 [10]: 34.1 µM; TGI [10]: > 100 µM; GI50 [11]: 27.1 µM; TGI [11]: 71.2 µM; GI50 [12]: 17.6 µM; TGI [12]: 34.3 µM; GI50 [13]: 14.8 µM; TGI [13]: > 100 µM; GI50 [14]: 65.7 µM; TGI [14]: > 100 µM; GI50 [15]: 18 µM; TGI [15]: 33.2 µM; GI50 [16]: 20.9 µM; TGI [16]: 77.1 µM; GI50 [17]: 28.6 µM; TGI [17]: 85.2 µM; GI50 [18]: 16.2 µM; TGI [18]: 32.4 µM; GI50 [19]: 31 µM; TGI [19]: > 100 µM; GI50 [20]: 87.4 µM; TGI [20]: > 100 µM; GI50 [21]: 26.1 µM; TGI [21]: 68.7 µM; GI50 [22]: 4.65 µM; TGI [22]: 26 µM; GI50 [23]: 34.3 µM; TGI [23]: > 100 µM; GI50 [24]: 21.1 µM; TGI [24]: 54.7 µM; GI50 [25]: 35.4 µM; TGI [25]: 97.9 µM; GI50 [26]: 25.4 µM; TGI [26]: > 100 µM; GI50 [27]: 21.3 µM; TGI [27]: 50.3 µM; GI50 [28]: 64.3 µM; TGI [28]: > 100 µM; GI50 [29]: 17.3 µM; TGI [29]: 51 µM; GI50 [30]: 16.2 µM; TGI [30]: 38.2 µM; GI50 [31]: 21.9 µM; TGI [31]: 71.8 µM; GI50 [32]: 23 µM; TGI [32]: 56.9 µM; GI50 [33]: 42.6 µM; TGI [33]: > 100 µM; GI50 [34]: 60.8 µM; TGI [34]: > 100 µM; GI50 [35]: 17.1 µM; TGI [35]: 33.4 µM; GI50 [36]: 26.2 µM; TGI [36]: 59.5 µM; GI50 [37]: 18.3 µM; TGI [37]: > 100 µM; GI50 [38]: 37.1 µM; TGI [38]: > 100 µM; GI50 [39]: 18.6 µM; TGI [39]: 44.1 µM; GI50 [40]: 19.4 µM; TGI [40]: 37 µM; GI50 [41]: 4.66 µM; TGI [41]: > 100 µM; GI50 [42]: 41.3 µM; TGI [42]: > 100 µM; GI50 [43]: 23.9 µM; TGI [43]: 54 µM; GI50 [44]: 54.1 µM; TGI [44]: > 100 µM; GI50 [45]: 18.7 µM; TGI [45]: 48.7 µM; GI50 [46]: 26.9 µM; TGI [46]: > 100 µM; GI50 [47]: 23.6 µM; TGI [47]: 48 µM; GI50 [48]: 16.3 µM; TGI [48]: 41.9 µM; GI50 [49]: 22.6 µM; TGI [49]: 46.4 µM; GI50 [50]: 44 µM; TGI [50]: > 100 µM; GI50 [51]: 25.3 µM; TGI [51]: 64.4 µM; GI50 [52]: 28.3 µM; TGI [52]: 65.8 µM; GI50 [53]: 12 µM; TGI [53]: 28.7 µM; GI50 [54]: 16.4 µM; TGI [54]: 55.1 µM
